# Species: Rattus norvegicus
# Assay: Open TG-GATES - Regimen: Daily Repeat
# Assay type: toxicity, organism-based, Sprague-Dawley
# Design: regimen Daily Repeat, gender Male, age 6 weeks
# Conditions: in vivo, po, 0 mg/kg, route gavage, dose level Control; for APTT / Bas / Eos / Fbg / Hb / Ht / Lym / MCH / MCHC / MCV / Mono / Neu / PT / Plat / RBC / Ret / WBC: tissue Blood; for KIDNEY_L / KIDNEY_R / KIDNEY_TOTAL: tissue Kidney; for LIVER: tissue Liver; for A/G / ALP / ALT / AST / BUN / CRE / Ca / Cl / DBIL / GLC / IP / K / LDH / Na / PL / RALB / TBIL / TC / TG / TP / gamma-GTP: tissue Plasma
smiles,measurement,setting,value
CC(CN1c2ccccc2Sc2ccccc21)N(C)C (configuration not stated) [PROMETHAZINE],TERMINAL_BW,"72 h, time 3 day",230.6 g
same,APTT,"72 h, time 3 day",22.8 s
same,Bas,"72 h, time 3 day",0%
same,Eos,"72 h, time 3 day",1%
same,Fbg,"72 h, time 3 day",309 mg/dL
same,Hb,"72 h, time 3 day",13.2 g/dL
same,Ht,"72 h, time 3 day",40.1%
same,Lym,"72 h, time 3 day",81.2%
same,MCH,"72 h, time 3 day",20.4 pg
same,MCHC,"72 h, time 3 day",33%
same,MCV,"72 h, time 3 day",61.9 fL
same,Mono,"72 h, time 3 day",2.8%
same,Neu,"72 h, time 3 day",14.5%
same,PT,"72 h, time 3 day",16.1 s
same,Plat,"72 h, time 3 day",117 x10_4/uL
same,RBC,"72 h, time 3 day",647.8 x10_4/ul
same,Ret,"72 h, time 3 day",6%
same,WBC,"72 h, time 3 day",94 x10_2/uL
same,KIDNEY_L,"72 h, time 3 day",1 g
same,KIDNEY_R,"72 h, time 3 day",1.1 g
same,KIDNEY_TOTAL,"72 h, time 3 day",2.1 g
same,LIVER,"72 h, time 3 day",11.1 g
same,A/G,"72 h, time 3 day",1.3
same,ALP,"72 h, time 3 day",1577 IU/L
same,ALT,"72 h, time 3 day",40 IU/L
same,AST,"72 h, time 3 day",71.8 IU/L
same,BUN,"72 h, time 3 day",17 mg/dL
same,CRE,"72 h, time 3 day",0.2 mg/dL
same,Ca,"72 h, time 3 day",10.5 mg/dL
same,Cl,"72 h, time 3 day",105.2 meq/L
same,DBIL,"72 h, time 3 day",0 mg/dL
same,GLC,"72 h, time 3 day",195.2 mg/dL
same,IP,"72 h, time 3 day",6.8 mg/dL
same,K,"72 h, time 3 day",4.6 meq/L
same,LDH,"72 h, time 3 day",177 IU/L
same,Na,"72 h, time 3 day",141.2 meq/L
same,PL,"72 h, time 3 day",161 mg/dL
same,RALB,"72 h, time 3 day",3.1 g/dL
same,TBIL,"72 h, time 3 day",0.005 mg/dL
same,TC,"72 h, time 3 day",86.8 mg/dL
same,TG,"72 h, time 3 day",109.8 mg/dL
same,TP,"72 h, time 3 day",5.5 g/dL
same,gamma-GTP,"72 h, time 3 day",1.8 IU/L
same,TERMINAL_BW,"[…], time 7 day",267.8 g
same,TERMINAL_BW,"[…], time 14 day",326 g
same,TERMINAL_BW,"[…], time 28 day",402.8 g
same,APTT,"[…], time 7 day",22.2 s
same,Bas,"[…], time 7 day",0%
same,Eos,"[…], time 7 day",0.8%
same,Fbg,"[…], time 7 day",293.8 mg/dL
same,Hb,"[…], time 7 day",12.9 g/dL
same,Ht,"[…], time 7 day",39.1%
same,Lym,"[…], time 7 day",84.2%
same,MCH,"[…], time 7 day",20.4 pg
same,MCHC,"[…], time 7 day",33%
same,MCV,"[…], time 7 day",61.7 fL
same,Mono,"[…], time 7 day",2.2%
same,Neu,"[…], time 7 day",12.2%
same,PT,"[…], time 7 day",16.3 s
same,Plat,"[…], time 7 day",105 x10_4/uL
same,RBC,"[…], time 7 day",633.4 x10_4/ul
same,Ret,"[…], time 7 day",6.3%
same,WBC,"[…], time 7 day",131.7 x10_2/uL
same,APTT,"[…], time 14 day",23.3 s
same,Bas,"[…], time 14 day",0%
same,Eos,"[…], time 14 day",1%
same,Fbg,"[…], time 14 day",317.8 mg/dL
same,Hb,"[…], time 14 day",14.1 g/dL
same,Ht,"[…], time 14 day",41.4%
same,Lym,"[…], time 14 day",80.2%
same,MCH,"[…], time 14 day",20.7 pg
same,MCHC,"[…], time 14 day",34%
same,MCV,"[…], time 14 day",60.8 fL
same,Mono,"[…], time 14 day",2%
same,Neu,"[…], time 14 day",15.8%
same,PT,"[…], time 14 day",16 s
same,Plat,"[…], time 14 day",114.3 x10_4/uL
same,RBC,"[…], time 14 day",681 x10_4/ul
same,Ret,"[…], time 14 day",5.1%
same,WBC,"[…], time 14 day",127.7 x10_2/uL
same,APTT,"[…], time 28 day",22.7 s
same,Bas,"[…], time 28 day",0%
same,Eos,"[…], time 28 day",0.8%
same,Fbg,"[…], time 28 day",341.8 mg/dL
same,Hb,"[…], time 28 day",15.1 g/dL
same,Ht,"[…], time 28 day",43.8%
same,Lym,"[…], time 28 day",80.2%
same,MCH,"[…], time 28 day",19.9 pg
same,MCHC,"[…], time 28 day",34.6%
same,MCV,"[…], time 28 day",57.7 fL
same,Mono,"[…], time 28 day",1.8%
same,Neu,"[…], time 28 day",16.4%
same,PT,"[…], time 28 day",16.4 s
same,Plat,"[…], time 28 day",101.8 x10_4/uL
same,RBC,"[…], time 28 day",760.2 x10_4/ul
same,Ret,"[…], time 28 day",2.9%
same,WBC,"[…], time 28 day",124 x10_2/uL
same,KIDNEY_L,"[…], time 7 day",1.2 g
same,KIDNEY_R,"[…], time 7 day",1.2 g
same,KIDNEY_TOTAL,"[…], time 7 day",2.3 g
same,KIDNEY_L,"[…], time 14 day",1.2 g
same,KIDNEY_R,"[…], time 14 day",1.2 g
same,KIDNEY_TOTAL,"[…], time 14 day",2.5 g
same,KIDNEY_L,"[…], time 28 day",1.4 g
same,KIDNEY_R,"[…], time 28 day",1.4 g
same,KIDNEY_TOTAL,"[…], time 28 day",2.8 g
same,LIVER,"[…], time 7 day",12.3 g
same,LIVER,"[…], time 14 day",15.1 g
same,LIVER,"[…], time 28 day",16.9 g
same,A/G,"[…], time 7 day",1.3
same,ALP,"[…], time 7 day",1379.8 IU/L
same,ALT,"[…], time 7 day",42.2 IU/L
same,AST,"[…], time 7 day",73.2 IU/L
same,BUN,"[…], time 7 day",17.6 mg/dL
same,CRE,"[…], time 7 day",0.2 mg/dL
same,Ca,"[…], time 7 day",10.7 mg/dL
same,Cl,"[…], time 7 day",104.6 meq/L
same,DBIL,"[…], time 7 day",0 mg/dL
same,GLC,"[…], time 7 day",205.2 mg/dL
same,IP,"[…], time 7 day",7.7 mg/dL
same,K,"[…], time 7 day",4.6 meq/L
same,LDH,"[…], time 7 day",212.4 IU/L
same,Na,"[…], time 7 day",141.2 meq/L
same,PL,"[…], time 7 day",133.6 mg/dL
same,RALB,"[…], time 7 day",3.1 g/dL
same,TBIL,"[…], time 7 day",0.012 mg/dL
same,TC,"[…], time 7 day",64.4 mg/dL
same,TG,"[…], time 7 day",89.4 mg/dL
same,TP,"[…], time 7 day",5.4 g/dL
same,gamma-GTP,"[…], time 7 day",2 IU/L
same,A/G,"[…], time 14 day",1.2
same,ALP,"[…], time 14 day",1370.6 IU/L
same,ALT,"[…], time 14 day",40 IU/L
same,AST,"[…], time 14 day",70.4 IU/L
same,BUN,"[…], time 14 day",18.8 mg/dL
same,CRE,"[…], time 14 day",0.2 mg/dL
same,Ca,"[…], time 14 day",10.8 mg/dL
same,Cl,"[…], time 14 day",105.4 meq/L
same,DBIL,"[…], time 14 day",0 mg/dL
same,GLC,"[…], time 14 day",201 mg/dL
same,IP,"[…], time 14 day",7 mg/dL
same,K,"[…], time 14 day",4.3 meq/L
same,LDH,"[…], time 14 day",162.6 IU/L
same,Na,"[…], time 14 day",142.2 meq/L
same,PL,"[…], time 14 day",136.8 mg/dL
same,RALB,"[…], time 14 day",3.2 g/dL
same,TBIL,"[…], time 14 day",0.002 mg/dL
same,TC,"[…], time 14 day",66 mg/dL
same,TG,"[…], time 14 day",133 mg/dL
same,TP,"[…], time 14 day",5.9 g/dL
same,gamma-GTP,"[…], time 14 day",3 IU/L
same,A/G,"[…], time 28 day",1
same,ALP,"[…], time 28 day",1347.2 IU/L
same,ALT,"[…], time 28 day",42.4 IU/L
same,AST,"[…], time 28 day",66.8 IU/L
same,BUN,"[…], time 28 day",19.4 mg/dL
same,CRE,"[…], time 28 day",0.2 mg/dL
same,Ca,"[…], time 28 day",10.4 mg/dL
same,Cl,"[…], time 28 day",104.8 meq/L
same,DBIL,"[…], time 28 day",0 mg/dL
same,GLC,"[…], time 28 day",195.8 mg/dL
same,IP,"[…], time 28 day",6.3 mg/dL
same,K,"[…], time 28 day",4 meq/L
same,LDH,"[…], time 28 day",160.6 IU/L
same,Na,"[…], time 28 day",143.2 meq/L
same,PL,"[…], time 28 day",149 mg/dL
same,RALB,"[…], time 28 day",3 g/dL
same,TBIL,"[…], time 28 day",0.006 mg/dL
same,TC,"[…], time 28 day",65.8 mg/dL
same,TG,"[…], time 28 day",192.8 mg/dL
same,TP,"[…], time 28 day",6.2 g/dL
same,gamma-GTP,"[…], time 28 day",2.6 IU/L
